# Target: Gag-Pol polyprotein (Human immunodeficiency virus type 1 group M subtype B (isolate HXB2), UniProt P04585)
# Test: HIV-1 RT Colorimetric Assay
# Description: The reaction mixture was set with template primer complex, RT enzyme and dNTPs in a lysis buffer with or without inhibitors. The reaction mixture was incubated at 37 °C for 1 h and then transferred to streptavidin-coated microtitre plate (MTP). The biotin-labeled dNTPs that were incorporated in the template due to activity ofRT, bound to streptavidin. The unbound dNTPs were washed using wash buffer and anti-DIG-POD was added to the MTP. The DIGlabeled dNTPs incorporated in the template were bound to an anti-DIG-POD antibody. The unbound anti-DIG-POD was washed again with washing buffer and the peroxide substrate (ABST) was added to the MTP. A colored reaction product was produced during the cleavage of the substrate catalyzed by a peroxide enzyme. The absorbance of the sample was determined as an optical density (OD) at 405 nm using a micro titer plate ELISA reader.
row,SMILES,IC50
1,"COc1ccc2c(c1)CCCN2CCC(=O)N1CCN(Cc2ccccc2)CC1 [1-(4-benzylpiperazin-1-yl)-3-(6-methoxy-3,4-dihydroquinolin-1(2H)-yl)propan-1-one (6m)]",> 100 µM
2,"COc1cccc(N2CCN(C(=O)CCN3CCCc4cc(OC)ccc43)CC2)c1 [3-(6-methoxy-3,4-dihydroquinolin-1(2H)-yl)-1-(4-(3-methoxyphenyl)piperazin-1-yl)propan-1-one (6e)]",58.2 µM
3,"COc1ccc2c(c1)CCCN2CCC(=O)N1CCN(c2ccccc2F)CC1 [1-(4-(2-fluorophenyl)piperazin-1-yl)-3-(6-methoxy-3,4-dihydroquinolin-1(2H)-yl)propan-1-one (6g)]",47.5 µM
4,"COc1ccc(N2CCN(C(=O)CCN3CCCc4cc(OC)ccc43)CC2)cc1 [3-(6-methoxy-3,4-dihydroquinolin-1(2H)-yl)-1-(4-(4-methoxyphenyl)piperazin-1-yl)propan-1-one (6f)]",> 100 µM
5,"COc1ccc2c(c1)CCCN2CCC(=O)N1CCN(c2ccccn2)CC1 [3-(6-methoxy-3,4-dihydroquinolin-1(2H)-yl)-1-(4-(pyridin-2-yl)piperazin-1-yl)propan-1-one (6n)]",48.6 µM
6,"COc1ccc2c(c1)CCCN2CCC(=O)N1CCN(c2ccccc2OC)CC1 [3-(6-methoxy-3,4-dihydroquinolin-1(2H)-yl)-1-(4-(2-methoxyphenyl)piperazin-1-yl)propan-1-one (6d)]",52.8 µM
7,"COc1ccc2c(c1)CCCN2CCC(=O)N1CCN(c2ccc([N+](=O)[O-])cc2)CC1 [3-(6-methoxy-3,4-dihydroquinolin-1(2H)-yl)-1-(4-(4-nitrophenyl)piperazin-1-yl)propan-1-one (6l)]",82.7 µM
8,"COc1ccc2c(c1)CCCN2CCC(=O)N1CCN(c2ccc(F)cc2)CC1 [1-(4-(4-fluorophenyl)piperazin-1-yl)-3-(6-methoxy-3,4-dihydroquinolin-1(2H)-yl)propan-1-one (6h)]",78.5 µM

# Stronger by IC50, values ahead:
row,IC50,SMILES
1,14.5 µM,"COc1ccc2c(c1)CCCN2CCC(=O)N1CCN(c2cccc(Cl)c2Cl)CC1 [1-(4-(2,3-dichlorophenyl)piperazin-1-yl)-3-(6-methoxy-3,4-dihydroquinolin-1(2H)-yl)propan-1-one (6o)]"
2,32.9 µM,"COc1ccc2c(c1)CCCN2CCC(=O)N1CCN(c2ccccc2Cl)CC1 [1-(4-(2-chlorophenyl)piperazin-1-yl)-3-(6-methoxy-3,4-dihydroquinolin-1(2H)-yl)propan-1-one (6i)]"
3,12.5 µM,"COc1ccc2c(c1)CCCN2CCC(=O)N1CCN(c2ccccc2C)CC1 [3-(6-methoxy-3,4-dihydroquinolin-1(2H)-yl)-1-(4-o-tolylpiperazin-1-yl)propan-1-one (6b)]"
4,24.9 µM,"COc1ccc2c(c1)CCCN2CCC(=O)N1CCN(c2ccc(Cl)cc2)CC1 [1-(4-(4-chlorophenyl)piperazin-1-yl)-3-(6-methoxy-3,4-dihydroquinolin-1(2H)-yl)propan-1-one (6k)]"
5,28.5 µM,"COc1ccc2c(c1)CCCN2CCC(=O)N1CCN(c2ccc(C)cc2)CC1 [3-(6-methoxy-3,4-dihydroquinolin-1(2H)-yl)-1-(4-p-tolylpiperazin-1-yl)propan-1-one (6c)]"
6,18.6 µM,"COc1ccc2c(c1)CCCN2CCC(=O)N1CCN(c2cccc(Cl)c2)CC1 [1-(4-(3-chlorophenyl)piperazin-1-yl)-3-(6-methoxy-3,4-dihydroquinolin-1(2H)-yl)propan-1-one (6j)]"
7,24.3 µM,"COc1ccc2c(c1)CCCN2CCC(=O)N1CCN(c2ccccc2)CC1 [3-(6-methoxy-3,4-dihydroquinolin-1(2H)-yl)-1-(4-phenylpiperazin-1-yl)propan-1-one (6a)]"
